Experimental data: patent US20100034836A1, “COMPOSITIONS AND METHODS FOR THE DIAGNOSIS AND ALLEVIATION OF TUMOR” (priority 2006, published 2010)

Legend:
MEK1/2 = test system: MEK1/2
Protocol: Experiments were performed to identify the TASK121 downstream signals that are important for TASK122 expression. A375, 928-MEL, COL0205 and SK23-MEL cell lines were characterized for TASK121 and RAS activating mutations and TASK122 expression was measured by immunoblotting of these tumors cells when cultured in the presence or absence of the MEK1/2 inhibitor, U0126 (Favata et al., J Biol Chem 273:18623-32 (1998)).

tumor = conditions: nude mouse tumor model (Teicher et al. 2002); cited from earlier work
ΔTASK121-ER = ΔTASK121-ER (Mus musculus, UniProt P19785, G525R); conditions: NIH 3T3 ΔTASK121-ER cells, minimal media, 0-2000 nM 4OHT for 24 hours
Source text: (§1) To identify genes that are regulated specifically in response to TASK121 activation and not as a result of full mitogenic stimulation, TASK121 was conditionally activated using the previously described estrogen receptor (ER) fusion protein system (Samuels et al., Mol Cell Biol 13:6241-52 (1993)). The catalytic domains of wild-type and oncogenic human TASK121 (denoted as ΔTASK121 and ΔTASK121^V600E, respectively) were fused to a variant of the murine ER hormone-binding domain in which a G525R mutation switches responsiveness from endogenous estrogen to a synthetic antagonist, 4-hydroxytamoxifen (4OHT) (Danielian, et al., Mol Endocrinol 7:232-40 (1993)). […] NIH 3T3 cells expressing ΔTASK121-ER, ΔTASK121^V600E-ER or empty vector were derived by retroviral infection and several independent clones were characterized to ensure against a clonal selection bias. To determine effective doses for inducing TASK121 kinase activity, ΔTASK121-ER and ΔTASK121^V600EER cells were cultured in minimal media and stimulated with 0-2000 nM 4OHT for 24 hours. […] Accumulation of ΔTASK121-ER and ΔTASK121^V600E-ER chimeric proteins and corresponding ERK1/2 phosphorylation were detected by immunoblotting.

ΔTASK121^V600E-ER = ΔTASK121^V600E-ER (Mus musculus, UniProt P19785, G525R); conditions: NIH 3T3 ΔTASK121^V600E-ER cells, minimal media, 0-2000 nM 4OHT for 24 hours
Source text: as §1

ΔTASK121^V600E-ER cells = test: Morphological transformation of 3T3 cells upon 4OHT induction; assay type: cell-based; conditions: 200 nM 4OHT, within 24 hours
endogenous TASK121 = test: Dox-induced shRNA knockdown in A375 melanoma cells, immunoblotting; assay type: cell-based
Source text: The regulation of TASK122 by TASK 121 was directly addressed in an RNAi knockdown experiment. A375 melanoma cells, which contain an endogenous TASK121^V600E allele, were infected with a retrovirus expressing either TASK121 specific shRNAs or a control firefly Luciferase shRNA. Hairpin oligonucleotides used in this study are as follows:
In this system, the Tet repressor protein binds a modified polIII promoter thereby preventing shRNA expression. However, in the presence of a tetracycline analog, doxycycline (Dox), the Tet repressor protein is released from the promoter resulting in shRNA transcription and knockdown of endogenous TASK121 or luciferase expression.

[1] = 10 μM U0126, A375, 928-MEL, COL0205 and SK23-MEL cell lines

Sequence of ΔTASK121-ER (P19785 315-551 G525R limits assumed): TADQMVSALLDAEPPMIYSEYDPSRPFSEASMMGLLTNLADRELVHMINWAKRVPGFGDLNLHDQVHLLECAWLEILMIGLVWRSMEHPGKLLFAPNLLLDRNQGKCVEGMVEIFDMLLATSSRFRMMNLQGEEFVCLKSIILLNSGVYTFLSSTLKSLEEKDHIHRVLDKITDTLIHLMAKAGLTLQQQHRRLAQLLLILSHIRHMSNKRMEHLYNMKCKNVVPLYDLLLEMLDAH
Sequence of ΔTASK121-ER (P15056 457-717 partner limits assumed): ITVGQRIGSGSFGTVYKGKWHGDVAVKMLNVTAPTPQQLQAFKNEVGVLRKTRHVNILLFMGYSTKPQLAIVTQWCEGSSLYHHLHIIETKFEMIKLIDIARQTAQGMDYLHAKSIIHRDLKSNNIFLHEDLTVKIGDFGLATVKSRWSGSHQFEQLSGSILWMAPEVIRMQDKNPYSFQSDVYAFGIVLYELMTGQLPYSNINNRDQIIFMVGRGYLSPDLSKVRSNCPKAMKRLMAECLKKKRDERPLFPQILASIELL
Sequence of ΔTASK121^V600E-ER (P19785 315-551 G525R): as the sequence (P19785 315-551 G525R limits assumed) above
Sequence of ΔTASK121^V600E-ER (P15056 457-717 V600E partner limits assumed): as the sequence (P15056 457-717 partner limits assumed) above, with V144E counted along it

Question: For `N#CC(=C(/N)Sc1ccccc1N)/C(C#N)=C(\N)Sc1ccccc1N` [U0126], which TASK122 expression (MEK1/2; 10 μM U0126, inhibition of ERK1/2 phosphorylation) is on record?
Answer: abolished

Question: And the ERK1/2 phosphorylation (MEK1/2; [1])?
Answer: decreased

Question: What about the “total ERK2 levels” value (MEK1/2; [1]) of the same molecule?
Answer: unaffected

Question: Which anti-tumor effect (tumor) does the source give for `Cl.Cn1cc(C2=C(c3cn(C4CCN(Cc5ccccn5)CC4)c4ccccc34)C(=O)NC2=O)c2ccccc21` [317615-HCL] here?
Answer: anti-tumor effect

Question: Which “4OHT concentration at which TASK121-mediated signaling was maximal” value (ΔTASK121-ER) does the source give for 4-hydroxytamoxifen [4OHT] here?
Answer: 100 nM

Question: What about the “4OHT concentration at which TASK121-mediated signaling was maximal” value (ΔTASK121^V600E-ER) of the same molecule?
Answer: 10 nM

Question: And the cell morphology (ΔTASK121^V600E-ER cells)?
Answer: refractile and spindle-shaped phenotype

B1: TASK121 shRNA: hairpin oligonucleotides SEQ ID NO: 7 (sense) and SEQ ID NO: 8 (antisense), retrovirally expressed, Tet-regulated (nucleic acid)
sense: GATCCCCAGAATTGGATCTGGATCATTTCAAGAGAATGATCCAGATCCAATTCTTTTTTTGGAAA
antisense: AGCTTTTCCAAAAAAAGAATTGGATCTGGATCATTCTCTTGAAATGATCCAGATCCAATTCTGGG
modifications: the letters are possibly those of the target site
Question: Which results are given for B1?
Answer: TASK122 levels (endogenous TASK121): significant reduction; phosphorylated ERK1/2 (endogenous TASK121): significant reduction; total ERK2 levels (endogenous TASK121): remained unchanged

B2: Luciferase shRNA: control firefly Luciferase shRNA, SEQ ID NO: 9 (sense) and 10 (antisense) (nucleic acid)
sense: GATCCCCCTTACGCTGAGTACTTCGATTCAAGAGATCGAAGTACTCAGCGTAAGTTTTTTGGAAA
antisense: AGCTTTTCCAAAAAACTTACGCTGAGTACTTCGATCTCTTGAATCGAAGTACTCAGCGTAAGGGG
modifications: the letters are possibly those of the target site
Question: Which TASK122 levels (endogenous TASK121) does the source give for B2 here?
Answer: did not alter
